The results in this text go back to EP0601520A1, “Trifluorothymidine derivatives, process for producing the same and anti-cancer agent containing the same” (MITSUI TOATSU CHEMICALS, Inc., priority 1992, dated 1994).

One data set concerns Meth A fibrosarcoma. Nature of the data set: Anti-tumor activity, subcutaneously transplanted Meth A fibrosarcoma in mice, oral administration. The format is in vivo, CDF₁ mice. Conditions: tumors weighed on day 14. The text has this: (§1) The compound obtained in Examples 1, 4, 9 or 11 was uniformly suspended in 0.5% aqueous methylcellulose solution. The compound obtained in Example 14 was uniformly suspended in 0.5% aqueous methylcellulose solution containing 0.1% TWEEN 80.
(§2) For the compounds obtained in Examples 1, 4, 9 and 11, female CDF₁ mice of 7 weeks old were used. For the compound obtained in Example 14, female CDF₁ mice of 6 weeks old were used. Each group consisted of 5 or 6 animals.
As the tumor, Meth A fibrosarcoma was used.
(§3) To the right abdomen of each mouse, 2 x 10⁶ tumor cells were subcutaneously transplanted. On the next day (day 1), the mice were randomly grouped and the suspension was compulsively administered to the mice by using an oral sound for successive 7 days (day 1 - day 7).
On day 14, the tumors were removed and weighed. The tumor growth ratio (%) was calculated according to the following equation: Tumor Growth Ratio (%) = T/C x 100 [formula] wherein T means the average weight of tumor of the treated group and C means the average weight of tumor of the control group. The results about the compounds obtained in Examples 1, 4, 9 and 11 are shown in Table 2, and the results about the compound obtained in Example 14 are shown in Table 3. In Table 2, "HCFU" means 1-hexyl carbamoyl-5-fluorouracil known as "Carmofur".

Data set [1] is described as follows: Bodyweight change of the tumor-carrying mice in the anti-tumor activity test. The format is in vivo, CDF₁ mice.
Source text: as §1, §2, §3

[2] abbreviates: dose 100.0 mg/kg, Table 2 experiment, female CDF₁ mice.

`C#CCO[C@H]1C[C@H](n2cc(C(F)(F)F)c(=O)[nH]c2=O)O[C@@H]1COC(=S)c1ccc(Cl)cc1` [Example 4, 3'-O-propargyl-5'-O-(4-chlorothiobenzoyl)-α,α,α-trifluorothymidine]: the “Tumor Weight Ratio (T/C:%)” value in the data set on Meth A fibrosarcoma (dose 14.6 mg/kg oral, day 1 - day 7, female CDF₁ mice 7 weeks old) amounted to 23.3%; in the data set on Meth A fibrosarcoma (dose 58.5 mg/kg oral, day 1 - day 7, female CDF₁ mice 7 weeks old), 4.8%. The “Bodyweight Change” value in data set [1] (dose 14.6 mg/kg oral, day 1 - day 7, female CDF₁ mice 7 weeks old, 0.5% methylcellulose suspension) is -0.8 g; in data set [1] (dose 58.5 mg/kg oral, day 1 - day 7, female CDF₁ mice 7 weeks old, 0.5% methylcellulose suspension), -3.8 g.
On to `C#CCO[C@H]1C[C@H](n2cc(C(F)(F)F)c(=O)[nH]c2=O)O[C@@H]1COC(=S)c1ccc(C)cc1` [Example 1, 3'-O-propargyl-5'-O-(4-methyl-thiobenzoyl)-α,α,α-trifluorothymidine], for which the “Tumor Weight Ratio (T/C:%)” value with Meth A fibrosarcoma (dose 14.0 mg/kg oral, day 1 - day 7, female CDF₁ mice 7 weeks old) is recorded as 28.4%; in the data set on Meth A fibrosarcoma (dose 56.1 mg/kg oral, day 1 - day 7, female CDF₁ mice 7 weeks old) it was 7.1%. Besides, the “Bodyweight Change” value in data set [1] (dose 14.0 mg/kg oral, day 1 - day 7, female CDF₁ mice 7 weeks old, 0.5% methylcellulose suspension) was -0.4 g; in data set [1] (dose 56.1 mg/kg oral, day 1 - day 7, female CDF₁ mice 7 weeks old, 0.5% methylcellulose suspension), -3.2 g.
On to `C#CCO[C@H]1C[C@H](n2cc(C(F)(F)F)c(=O)[nH]c2=O)O[C@@H]1COC(=S)c1cccs1` [Example 11, 3'-O-propargyl-5'-O-(2-thiophenecarbothionyl)-α,α,α-trifluorothymidine], for which the “Tumor Weight Ratio (T/C:%)” value in the data set on Meth A fibrosarcoma (dose 13.8 mg/kg oral, day 1 - day 7, female CDF₁ mice 7 weeks old) came out at 27.6%; in the data set on Meth A fibrosarcoma (dose 55.1 mg/kg oral, day 1 - day 7, female CDF₁ mice 7 weeks old), 5.8%. Besides, the “Bodyweight Change” value is on record as -0.7 g in data set [1] (dose 13.8 mg/kg oral, day 1 - day 7, female CDF₁ mice 7 weeks old, 0.5% methylcellulose suspension) and -4.4 g in data set [1] (dose 55.1 mg/kg oral, day 1 - day 7, female CDF₁ mice 7 weeks old, 0.5% methylcellulose suspension).
Regarding `C#CCO[C@H]1C[C@H](n2cc(C(F)(F)F)c(=O)[nH]c2=O)O[C@@H]1COC(=S)c1ccccc1` [Example 14, 3'-O-propargyl-5'-O-thiobenzoyl-α,α,α-trifluorothymidine], the “Tumor Weight Ratio (T/C:%)” value in the data set on Meth A fibrosarcoma (dose 13.6 mg/kg oral, day 1 - day 7, female CDF₁ mice 6 weeks old) turned out to be 29.4%; in the data set on Meth A fibrosarcoma (dose 54.4 mg/kg oral, day 1 - day 7, female CDF₁ mice 6 weeks old), 7.2%. The “Bodyweight Change” value in data set [1] (dose 13.6 mg/kg oral, day 1 - day 7, female CDF₁ mice 6 weeks old, 0.5% methylcellulose containing 0.1% TWEEN 80) is reported as -0.5 g; in data set [1] (dose 54.4 mg/kg oral, day 1 - day 7, female CDF₁ mice 6 weeks old, 0.5% methylcellulose containing 0.1% TWEEN 80) it was -3.7 g.
With `C#CCO[C@H]1C[C@H](n2cc(C(F)(F)F)c(=O)[nH]c2=O)O[C@@H]1COC(=S)c1ccc(SC)cc1` [Example 9, 3'-O-propargyl-5'-O-(4-thiomethylthiobenzoyl)-α,α,α-trifluorothymidine], the “Tumor Weight Ratio (T/C:%)” value in the data set on Meth A fibrosarcoma (dose 15.0 mg/kg oral, day 1 - day 7, female CDF₁ mice 7 weeks old) is 22.5%; with Meth A fibrosarcoma (dose 60.0 mg/kg oral, day 1 - day 7, female CDF₁ mice 7 weeks old), 5.1%. Besides, the “Bodyweight Change” value in data set [1] (dose 15.0 mg/kg oral, day 1 - day 7, female CDF₁ mice 7 weeks old, 0.5% methylcellulose suspension) is given as -0.9 g; in data set [1] (dose 60.0 mg/kg oral, day 1 - day 7, female CDF₁ mice 7 weeks old, 0.5% methylcellulose suspension), -4.3 g.
As to `CCCCCCNC(=O)n1cc(F)c(=O)[nH]c1=O` [HCFU, 1-hexyl carbamoyl-5-fluorouracil, reference compound], the “Tumor Weight Ratio (T/C:%)” value in the data set on Meth A fibrosarcoma (setting [2]) came out at 18.0%. Also, the “Bodyweight Change” value in data set [1] (setting [2]) is on record as -2.0 g.
